ChEMBL document CHEMBL2163236, “7-Oxo-[1,4]oxazino[2,3,4-ij]quinoline-6-carboxamides as selective CB(2) cannabinoid receptor ligands: structural investigations around a novel class of full agonists” (J Med Chem, 2012)

Experiments:
Cannabinoid receptor 2 [1] = target: T1, Cannabinoid receptor 2 (Homo sapiens, UniProt P34972); assay: Displacement of [3H]CP-55940 from human recombinant CB2 receptor expressed in CHO cell membranes incubated for 60 mins by scintillation counting
Cannabinoid receptor 1 [2] = target: Cannabinoid receptor 1 (Homo sapiens, UniProt P21554); assay: Displacement of [3H]CP-55940 from human recombinant CB1 receptor expressed in CHO cell membranes incubated for 90 mins by scintillation counting
Cannabinoid receptor 1 [3] = target: Cannabinoid receptor 1 (Rattus norvegicus, UniProt P20272); assay: Displacement of [3H]CP-55940 from CB1 receptor in Sprague-Dawley rat brain by scintillation counting
Homo sapiens = species: Homo sapiens; assay: Selectivity ratio of Ki for human recombinant CB1 receptor to KI for human recombinant CB2 receptor
Cannabinoid receptor 2 [4] = target: T2, Cannabinoid receptor 2 (Rattus norvegicus, UniProt Q9QZN9); assay: Displacement of [3H]CP-55940 from CB2 receptor in Sprague-Dawley rat spleen by scintillation counting
T2 sequence (Q9QZN9 whole entry): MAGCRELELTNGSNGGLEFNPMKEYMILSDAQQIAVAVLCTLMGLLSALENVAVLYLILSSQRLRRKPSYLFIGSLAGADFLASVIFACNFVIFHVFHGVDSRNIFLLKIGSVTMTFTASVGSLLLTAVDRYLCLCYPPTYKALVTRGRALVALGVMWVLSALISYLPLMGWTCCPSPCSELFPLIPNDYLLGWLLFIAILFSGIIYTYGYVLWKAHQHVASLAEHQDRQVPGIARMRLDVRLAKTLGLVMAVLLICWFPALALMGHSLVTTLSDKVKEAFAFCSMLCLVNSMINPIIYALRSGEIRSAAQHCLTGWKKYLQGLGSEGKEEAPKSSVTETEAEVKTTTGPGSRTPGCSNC

Cannabinoid receptor 2 [5] = target: T1, Cannabinoid receptor 2; assay: Agonist activity at human recombinant CB2 receptor expressed in CHO cell membranes assessed as inhibition of forskolin-induced cAMP accumulation; type: functional, cell-based

T1 sequence (P34972 whole entry): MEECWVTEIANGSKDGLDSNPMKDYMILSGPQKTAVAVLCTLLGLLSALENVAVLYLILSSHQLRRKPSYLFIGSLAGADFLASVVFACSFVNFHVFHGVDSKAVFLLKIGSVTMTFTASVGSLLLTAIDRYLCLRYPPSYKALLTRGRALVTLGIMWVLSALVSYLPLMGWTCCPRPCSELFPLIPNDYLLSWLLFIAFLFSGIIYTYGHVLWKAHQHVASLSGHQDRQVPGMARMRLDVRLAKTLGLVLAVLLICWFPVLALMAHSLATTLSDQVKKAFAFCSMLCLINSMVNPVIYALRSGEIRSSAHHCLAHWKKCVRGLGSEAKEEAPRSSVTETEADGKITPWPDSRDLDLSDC
Chain of Cannabinoid receptor 1 (Homo sapiens, UniProt P21554) (P21554 whole entry): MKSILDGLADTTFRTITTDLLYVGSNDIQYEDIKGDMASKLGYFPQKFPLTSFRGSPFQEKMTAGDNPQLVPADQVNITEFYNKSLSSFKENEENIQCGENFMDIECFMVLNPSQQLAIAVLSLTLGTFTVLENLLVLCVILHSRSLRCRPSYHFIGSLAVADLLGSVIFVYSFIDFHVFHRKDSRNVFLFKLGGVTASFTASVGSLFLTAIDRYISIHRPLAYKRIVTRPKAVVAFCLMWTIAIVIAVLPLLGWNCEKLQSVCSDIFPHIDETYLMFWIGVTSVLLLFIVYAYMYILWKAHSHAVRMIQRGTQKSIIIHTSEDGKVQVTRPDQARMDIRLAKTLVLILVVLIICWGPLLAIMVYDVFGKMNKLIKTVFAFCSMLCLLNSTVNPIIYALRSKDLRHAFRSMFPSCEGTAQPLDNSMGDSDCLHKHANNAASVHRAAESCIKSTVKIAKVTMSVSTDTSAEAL
Chain of Cannabinoid receptor 1 (Rattus norvegicus, UniProt P20272) (P20272 whole entry): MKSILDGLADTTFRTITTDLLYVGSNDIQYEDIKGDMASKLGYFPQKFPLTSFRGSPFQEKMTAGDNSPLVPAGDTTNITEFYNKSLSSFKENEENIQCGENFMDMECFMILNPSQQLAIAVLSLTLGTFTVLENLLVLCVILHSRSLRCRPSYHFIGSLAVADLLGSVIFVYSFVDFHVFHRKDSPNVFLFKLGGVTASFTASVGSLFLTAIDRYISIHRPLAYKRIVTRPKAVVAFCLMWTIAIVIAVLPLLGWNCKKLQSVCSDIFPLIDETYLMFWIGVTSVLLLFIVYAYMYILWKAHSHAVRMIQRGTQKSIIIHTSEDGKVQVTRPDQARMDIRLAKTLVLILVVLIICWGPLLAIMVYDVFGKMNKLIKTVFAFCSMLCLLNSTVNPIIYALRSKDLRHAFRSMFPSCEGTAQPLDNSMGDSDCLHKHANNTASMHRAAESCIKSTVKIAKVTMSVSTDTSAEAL

| Compound | Ki (Cannabinoid receptor 2 [1]) [µM] | Ki (Cannabinoid receptor 1 [2]) [µM] | Ki (Cannabinoid receptor 1 [3]) [µM] | Ratio Ki (Homo sapiens) | Ki (Cannabinoid receptor 2 [4]) [µM] | IC50 (Cannabinoid receptor 2 [5]) [µM] |
| --- | --- | --- | --- | --- | --- | --- |
| O=C(NC1CCCCC1)c1cn2c3c(cccc3c1=O)OCC2c1ccccc1 (racemic) | 0.00252 | 0.42 | 1.15 | 166 | 0.0193 | 0.0152 |
| O=C(NC1CCCCCC1)c1cn2c3c(cccc3c1=O)OCC2c1ccccc1 (racemic) | 0.00081 | 0.31 | 0.372 | 383 | 0.0147 | 0.00523 |
| O=C(NC12CC3CC(CC(C3)C1)C2)c1cn2c3c(cccc3c1=O)OCC2c1ccccc1 (racemic) | 0.0142 | 0.265 | 0.67 | 19 | 0.0183 | 0.026 |
| CC12CC3CC(C)(C1)CC(NC(=O)c1cn4c5c(cccc5c1=O)OCC4c1ccccc1)(C3)C2 (racemic) | 0.00345 | 0.46 | 0.545 | 133 | 0.046 | 0.0183 |
| CC1Oc2cccc3c(=O)c(C(=O)NC4CCCCC4)cn(c23)C1c1ccccc1 (racemic) | 0.536 | 3.13 | 3.52 | 5.83 | 0.71 | 2.75 |
| CC1Oc2cccc3c(=O)c(C(=O)NC45CC6CC(CC(C6)C4)C5)cn(c23)C1c1ccccc1 (racemic) | 0.332 | 2.44 | 2.64 | 7.33 | 0.443 | 1.68 |
| Cc1ccc(C2COc3cccc4c(=O)c(C(=O)NC5CCCCC5)cn2c34)cc1 (racemic) | 0.468 | 4.11 | 4.57 | 8.78 | 0.547 | 2.46 |
| Cc1ccc(C2COc3cccc4c(=O)c(C(=O)NC56CC7CC(CC(C7)C5)C6)cn2c34)cc1 (racemic) | 0.412 | 3.88 | 4.15 | 9.41 | 0.482 | 2.21 |
| Cc1cc2c3c(c1)c(=O)c(C(=O)NC1CCCCC1)cn3C(c1ccccc1)CO2 (racemic) | 0.0184 | 1.35 | 1.57 | 73 | 0.025 | 0.11 |
| CC1COc2cccc3c(=O)c(C(=O)NC4CCCCC4)cn1c23 (racemic) | 0.06 | 2.15 | 2.63 | 36 | 0.065 | 0.245 |
| O=C(NC1CCCC1)c1cn2c3c(cccc3c1=O)OCC2c1ccccc1 (racemic) | 0.098 | 0.132 | 0.15 | 1.35 | 0.11 | 0.472 |
